Here are results for four compounds from paper PMC11285948, “The effects of CYP2B6 inactivators on the metabolism of ciprofol” (PLOS ONE, 2024).

The subject of series [1] is ciprofol metabolism in human liver microsomes (HLMs). The series can be described thus: Effects of psoralen and clopidogrel on ciprofol metabolism in HLM incubation system (substrate elimination, HPLC-MS/MS). It counts as in vitro ADME. Conditions: for IC50: 10 min preincubation, n = 3; for Relative residual activity (ciprofol metabolism): samples 1-3 and Mean; for degree of inhibitory effect on ciprofol metabolism: grading after ref 23. On the procedure: (§1) The volume of the incubation system was 200 μL and included 2 μL of substrate (ciprofol), 8 μL of rat liver microsomes (RLMs) or 6 μL of human liver microsomes (HLMs), 12 μL of NADPH generation system of solution (solution A 10 μL, solution B 2 μL), and the remaining volume was PBS. The incubation was performed in a water bath at a constant temperature of 37°C, and each sample was incubated three times in parallel.
(§2) The incubation system was removed from the water bath, and the reaction was terminated immediately by adding 800 μL of reaction termination solution (acetonitrile solution containing 5 μg·mL^-1 D6-ciprofol at 4°C). The mixture was vortexed for 2 min and centrifuged for 15 min, after which the supernatant was transferred to an autosampler vial for HPLC-MS/MS detection.
(§3) The incubation system was prepared according to the optimal incubation conditions, and different concentrations of psoralen or clopidogrel solution were added to the blank incubation system at concentrations of 0, 5, 12.5, 25, 50, 75, 100, 150, and 200 μmol·L^-1 and 0, 0.2, 0.5, 1, 2, 5, 10, 25, and 50 μmol·L^-1, respectively. The incubation system was preincubated in a water bath (37°C) for 10 min, and ciprofol was added to the system and subsequently incubated subsequently. The effects of psoralen and clopidogrel on the metabolism of ciprofol were investigated based on ΔC.
(§4) The substrate elimination method was employed in this study, and GraphPad Prism 8.0.2 software was used for statistical processing, including determination of the kinetic parameters of ciprofol metabolism and the IC50 values of psoralen and clopidogrel for ciprofol metabolism. The maximum velocity (Vmax), Michaelis constant (Km) and intrinsic clearance (CLint) were calculated using the […]: V=Vmax×[S]/Km+[S] CLint=Vmax/Km

Series [2] deals with recombinant human CYP2B6 enzyme. Conditions: cited from earlier work; for inhibition of recombinant human CYP2B6 enzyme activity: psoralen: ref Ji et al. 13, clopidogrel (bupropion as substrate): ref 31, 32.
The test system of series [3] is ciprofol metabolism in rat liver microsomes (RLMs). The series can be described thus: Effects of psoralen and clopidogrel on ciprofol metabolism in RLM incubation system (substrate elimination, HPLC-MS/MS). It counts as in vitro ADME. Particulars: for IC50: 10 min preincubation, n = 3; for Relative residual activity (ciprofol metabolism): samples 1-3 and Mean; for degree of inhibitory effect on ciprofol metabolism: grading after ref 23. On the procedure:
as §1, §2, §3, §4

The test system of series [4] is SD rats. Kind of series: Duration of loss of righting reflex (LORR) after ciprofol injection in rats. In kind it is in vivo, rat. Conditions: psoralen 27 mg·kg^-1 or clopidogrel 7.5 mg·kg^-1 gavage daily 7 d, then ciprofol 2.4 mg·kg^-1 i.v. As to the method:
Twenty-four SD rats were randomly and equally divided into three groups: the control group, psoralen group and clopidogrel group. The administration scheme was as follows: the control group received 0.5% carboxy methyl cellulose by gavage (1 mL·200 g^-1), the psoralen group received 27 mg·kg^-1 psoralen by gavage, and the clopidogrel group was gavaged with 7.5 mg·kg^-1 clopidogrel. […] All rats were treated once daily for seven days. Each rat was injected with 2.4 mg·kg^-1 ciprofol via the tail vein 12 h after the end of dosing on Day 7. Rats that received ciprofol injection were placed on a flat and soft insulation pad. Timekeeping began when the rats were in the supine position and lost the righting reflex and ended when the rats could turn to the prone position successfully. The duration of loss of righting reflex (LORR) in each rat was measured. During this period, approximately 300 μL of blood was collected from the inner canthus at 2, 4, 8, 12, 16, 20, 30, 45, and 60 min after ciprofol administration, and the plasma was separated. The plasma was processed and measured as described in Section 2.4.3, and DAS 2.0 software and a noncompartmental model were used to analyse the pharmacokinetic parameters.
IBM SPSS Statistics 27 software was used to analyse the main pharmacokinetic parameters, and GraphPad Prism 8.0.2 software was used for graphical visualization. […]

Series [5] relates to ciprofol metabolism. Further details: method as in PMID 37309663. Conditions: clinical trials NCT03758469, NCT04145583, NCT05181007; cited from earlier work.

Values joined by “and” are separate entries in the source; they are usually repeats but may differ in a detail not shown here. Identical values can stand only once.

Consider `COC(=O)[C@H](c1ccccc1Cl)N1CCc2sccc2C1` [clopidogrel], for which the values for the IC50 in series [1] and in series [3] were 2.56 µM and 6.38 µM, respectively. The “Relative residual activity (ciprofol metabolism)” value (from here on “Relative residual activity”) in series [1] (Cclopidogrel 0.20 μM) is 88.53% and 84.40% and 91.91%; in series [1] (Cclopidogrel 0.50 μM), 70.42% and 76.69% and 80.24%; in series [1] (Cclopidogrel 1.00 μM), 66.15% and 57.16% and 70.67%; in series [1] (Cclopidogrel 2.00 μM), 58.07% and 44.78% and 46.16%; in series [1] (Cclopidogrel 5.00 μM) it was 36.69% and 31.97% and 37.99%; in series [1] (Cclopidogrel 10.00 μM) it was 32.45% and 25.93% and 29.26%. Besides, the “Relative residual activity” value was 23.23% and 27.69% and 23.00% in series [1] (Cclopidogrel 25.00 μM); 19.78% and 11.54% and 13.21% in series [1] (Cclopidogrel 50.00 μM); 96.32% and 84.60% and 95.79% in series [3] (Cclopidogrel 0.20 μM); 90.44% and 83.76% and 96.63% in series [3] (Cclopidogrel 0.50 μM); 88.66% and 86.92% and 76.64% in series [3] (Cclopidogrel 1.00 μM); 75.16% and 58.26% and 69.88% in series [3] (Cclopidogrel 2.00 μM). The “Relative residual activity” value in series [3] (Cclopidogrel 5.00 μM) was 50.35% and 43.15% and 60.40%; in series [3] (Cclopidogrel 10.00 μM), 42.20% and 50.96% and 39.90%; in series [3] (Cclopidogrel 25.00 μM), 32.17% and 28.83% and 23.03%; in series [3] (Cclopidogrel 50.00 μM), 11.08% and 18.95% and 13.85%. The “degree of inhibitory effect on ciprofol metabolism” value in series [1] and in series [3] was “moderate inhibitory effects” in each case. Also, in series [2], the “inhibition of recombinant human CYP2B6 enzyme activity” value is given as “strongly inhibits”. Further, the “inactivation potency relative to its thiolactone metabolite” value in series [2] (recombinant human CYP2B6, bupropion as substrate) was 11 times. Moreover, in series [4], the “prolongation of duration of LORR compared with control group” value is 23.0%.

As to `Cc1cccc(Nc2ccccc2C(=O)O)c1C` [mefenamic acid], the “clinical effect on ciprofol metabolism” value in series [5] was “no clinical effect”.

Turning to `O=c1ccc2cc3ccoc3cc2o1` [psoralen], the figures for the IC50 in series [1] and in series [3] were 34 µM and 63.3 µM, respectively. Moreover, the “Relative residual activity” value in series [1] (Cpsoralen 5 μM) is 85.57% and 90.39% and 83.88%; in series [1] (Cpsoralen 5 μM, mean), 86.61%; in series [1] (Cpsoralen 12.5 μM), 76.45% and 75.70% and 82.09%; in series [1] (Cpsoralen 12.5 μM, mean) it was 78.08%; in series [1] (Cpsoralen 25 μM), 55.36% and 59.73% and 68.81%; in series [1] (Cpsoralen 25 μM, mean) it was 61.30%. The “Relative residual activity” value is 40.24% and 31.49% and 40.07% in series [1] (Cpsoralen 50 μM); 37.27% in series [1] (Cpsoralen 50 μM, mean); 32.40% and 26.96% and 29.47% in series [1] (Cpsoralen 75 μM); 29.61% in series [1] (Cpsoralen 75 μM, mean); 17.05% and 23.45% and 21.45% in series [1] (Cpsoralen 100 μM); 20.65% in series [1] (Cpsoralen 100 μM, mean). For the same compound, the “Relative residual activity” value in series [1] (Cpsoralen 200 μM) was 6.19% and 12.50% and 10.40%; in series [1] (Cpsoralen 200 μM, mean) it was 9.70%; in series [3] (Cpsoralen 5 μM), 93.09% and 97.46% and 90.99%; in series [3] (Cpsoralen 5 μM, mean) it was 93.85%; in series [3] (Cpsoralen 12.5 μM), 88.25% and 94.23% and 84.23%; in series [3] (Cpsoralen 12.5 μM, mean), 88.90%. Further, the “Relative residual activity” value was 79.18% and 75.1% and 87.55% in series [3] (Cpsoralen 25 μM); 80.61% in series [3] (Cpsoralen 25 μM, mean); 57.26% and 67.87% and 65.65% in series [3] (Cpsoralen 50 μM); 63.59% in series [3] (Cpsoralen 50 μM, mean); 32.92% and 44.27% and 51.97% in series [3] (Cpsoralen 75 μM); 43.05% in series [3] (Cpsoralen 75 μM, mean). Further, the “Relative residual activity” value is 29.87% and 38.51% and 22.31% in series [3] (Cpsoralen 100 μM); 30.23% in series [3] (Cpsoralen 100 μM, mean); 15.05% and 20.24% and 25.14% in series [3] (Cpsoralen 150 μM); 20.14% in series [3] (Cpsoralen 150 μM, mean); 14.67% and 20.19% and 12.3% in series [3] (Cpsoralen 200 μM); 15.72% in series [3] (Cpsoralen 200 μM, mean). For the same compound, the “degree of inhibitory effect on ciprofol metabolism” value in series [1] and in series [3] was “mild inhibitory effects” each time. In series [2], the “inhibition of recombinant human CYP2B6 enzyme activity” value was “moderately inhibit”. Moreover, in series [4], the “prolongation of duration of LORR compared with control group” value is listed as 16.1%.

Take `CO[C@H]1/C=C/O[C@@]2(C)Oc3c(C)c(O)c4c(O)c(c(/C=N/N5CCN(C)CC5)c(O)c4c3C2=O)NC(=O)/C(C)=C\C=C\[C@H](C)[C@H](O)[C@@H](C)[C@@H](O)[C@@H](C)[C@H](OC(C)=O)[C@@H]1C` [rifampicin]: in series [5], the “clinical effect on ciprofol metabolism” value is on record as “no clinical effect”.
